Results reported in ChEMBL document CHEMBL1152049, “Dual metalloprotease inhibitors.v. Utilization of bicyclic azepinonethiazolidines and azepinonetetrahydrothiazines in constrained peptidomimetics of mercaptoacyl dipeptides” (Bioorg Med Chem Lett, 1995).

Experiments:
[1] = molecular target: T1, Angiotensin-converting enzyme (Rattus norvegicus, UniProt P47820); assay: In vitro inhibitory activity against angiotensin converting enzyme (ACE); settings: read-out: I50
T1 sequence (P47820 whole entry): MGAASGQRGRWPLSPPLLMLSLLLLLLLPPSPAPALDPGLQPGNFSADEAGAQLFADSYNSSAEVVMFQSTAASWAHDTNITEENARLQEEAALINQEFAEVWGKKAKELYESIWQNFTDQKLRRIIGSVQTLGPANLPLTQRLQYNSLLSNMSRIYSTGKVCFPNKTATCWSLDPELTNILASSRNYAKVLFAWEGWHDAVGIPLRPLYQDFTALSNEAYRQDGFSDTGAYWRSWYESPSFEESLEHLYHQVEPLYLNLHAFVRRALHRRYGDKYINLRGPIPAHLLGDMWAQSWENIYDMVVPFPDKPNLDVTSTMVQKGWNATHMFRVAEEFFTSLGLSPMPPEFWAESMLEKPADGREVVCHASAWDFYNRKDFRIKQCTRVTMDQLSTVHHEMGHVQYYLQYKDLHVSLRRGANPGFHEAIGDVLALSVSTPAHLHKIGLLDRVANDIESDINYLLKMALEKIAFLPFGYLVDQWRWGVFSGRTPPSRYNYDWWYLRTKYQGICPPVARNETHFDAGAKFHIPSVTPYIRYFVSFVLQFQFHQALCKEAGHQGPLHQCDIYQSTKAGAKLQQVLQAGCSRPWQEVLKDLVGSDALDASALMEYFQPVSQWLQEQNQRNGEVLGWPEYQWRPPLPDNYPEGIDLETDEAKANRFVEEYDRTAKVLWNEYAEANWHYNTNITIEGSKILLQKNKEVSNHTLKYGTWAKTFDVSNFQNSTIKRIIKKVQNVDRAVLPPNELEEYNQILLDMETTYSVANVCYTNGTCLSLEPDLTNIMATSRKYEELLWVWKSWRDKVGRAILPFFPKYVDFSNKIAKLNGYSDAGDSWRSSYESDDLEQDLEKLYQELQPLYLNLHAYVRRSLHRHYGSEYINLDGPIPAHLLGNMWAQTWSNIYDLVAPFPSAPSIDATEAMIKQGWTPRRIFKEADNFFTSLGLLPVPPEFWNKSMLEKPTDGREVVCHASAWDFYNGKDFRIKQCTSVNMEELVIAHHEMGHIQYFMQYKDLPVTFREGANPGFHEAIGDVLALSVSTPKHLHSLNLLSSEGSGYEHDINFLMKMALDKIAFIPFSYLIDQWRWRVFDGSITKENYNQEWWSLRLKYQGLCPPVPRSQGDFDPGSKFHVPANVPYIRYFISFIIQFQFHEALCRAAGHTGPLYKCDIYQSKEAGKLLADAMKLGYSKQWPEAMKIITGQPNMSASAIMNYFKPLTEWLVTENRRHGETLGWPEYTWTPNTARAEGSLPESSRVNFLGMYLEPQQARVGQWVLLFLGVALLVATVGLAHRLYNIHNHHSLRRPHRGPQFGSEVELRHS

[2] = molecular target: T2, Neprilysin (Rattus norvegicus, UniProt P07861); assay: In vitro inhibitory activity against neutral endopeptidase (NEP); settings: read-out: I50
T2 sequence (P07861 whole entry): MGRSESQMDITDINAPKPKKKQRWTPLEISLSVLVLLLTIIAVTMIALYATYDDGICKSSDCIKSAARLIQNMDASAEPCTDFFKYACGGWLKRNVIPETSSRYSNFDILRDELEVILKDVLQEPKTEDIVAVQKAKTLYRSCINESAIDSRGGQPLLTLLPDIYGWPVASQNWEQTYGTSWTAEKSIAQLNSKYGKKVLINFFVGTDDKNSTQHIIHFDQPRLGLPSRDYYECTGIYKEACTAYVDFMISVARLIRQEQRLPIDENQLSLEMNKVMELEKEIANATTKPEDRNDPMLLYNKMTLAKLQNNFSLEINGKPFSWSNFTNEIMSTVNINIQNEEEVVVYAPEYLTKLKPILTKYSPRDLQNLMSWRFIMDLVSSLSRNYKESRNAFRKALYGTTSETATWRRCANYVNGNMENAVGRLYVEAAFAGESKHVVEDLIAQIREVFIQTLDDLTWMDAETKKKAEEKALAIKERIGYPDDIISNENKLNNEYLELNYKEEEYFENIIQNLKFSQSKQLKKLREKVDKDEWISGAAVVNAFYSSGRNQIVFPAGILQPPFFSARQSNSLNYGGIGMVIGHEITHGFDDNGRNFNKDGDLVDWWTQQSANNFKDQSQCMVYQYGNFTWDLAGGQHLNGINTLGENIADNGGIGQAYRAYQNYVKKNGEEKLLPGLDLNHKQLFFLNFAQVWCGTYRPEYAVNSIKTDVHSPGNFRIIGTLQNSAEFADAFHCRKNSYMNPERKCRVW

[3] = organism: Rattus norvegicus; assay: Dose required to effect 50% inhibition of the AI induced pressor response in normotensive rat; type: functional

| SMILES | IC50 [1] | IC50 [2] | ED50 [3] |
| --- | --- | --- | --- |
| O=C(N[C@H]1CCC[C@@H]2SCC[C@@H](C(=O)O)N2C1=O)[C@@H](S)Cc1ccccc1 | 11.6 nM | 133 nM | – |
| O=C(N[C@H]1CCC[C@H]2SCC[C@@H](C(=O)O)N2C1=O)[C@@H](S)Cc1ccccc1 | 25 nM | 42 nM | – |
| O=C(O)[C@H]1CCS[C@@H]2CCC[C@H](NC(=O)[C@@H](S)Cc3ccccc3)C(=O)N12 | 205 nM | 937 nM | – |

The next lines start with results.

| IC50 [1] | IC50 [2] | SMILES | ED50 [3] |
| --- | --- | --- | --- |
| 5.5 nM | 1.1 nM | O=C(N[C@H]1CCC[C@H]2SC[C@@H](C(=O)O)N2C1=O)[C@@H](CS)Cc1ccccc1 | 0.8 µmol/kg |
| 1.6 nM | 11.5 nM | O=C(N[C@H]1CCC[C@H]2SC[C@@H](C(=O)O)N2C1=O)[C@@H](S)Cc1ccccc1 | 0.07 µmol/kg |
| 11.5 nM | 2820 nM | O=C(N[C@H]1CCC[C@@H]2SC[C@@H](C(=O)O)N2C1=O)[C@@H](S)Cc1ccccc1 | – |
